The values that follow are results of earlier work, collected in publication PMC11406440 (Food and chemical toxicology : an international journal …, 2024).

Where two headings read alike, the source gives them in different places.

For data set [1], the system named is male rats. To be noted: 3 and 10 mg/kg/d; ref Butenhoff et al., 2009; cited from earlier work.
Data set [2] relates to mice. The note with it: dermal exposure; ref Weatherly et al., 2021, 2023; cited from earlier work.
The conditions of data set [3]: 5% dermal exposure, same conditions; ref Weatherly et al., 2023; cited from earlier work.
For data set [4] the following is noted: 4-day dermal exposure, ref Franko et al., 2012, cited from earlier work.
For data set [5] the following is noted: ex vivo human full-thickness skin; ref Franko et al., 2012; cited from earlier work.
The conditions of data set [6]: ref ATSDR, 2021; cited from earlier work.
The conditions of data set [7]: ex vivo mouse skin; ref Franko et al., 2012; cited from earlier work.
In data set [8] the test system is IgM response to SRBC. The note with it: cited from earlier work.

With `O=S(=O)([O-])C(F)(F)C(F)(F)C(F)(F)C(F)(F)C(F)(F)C(F)(F)F.[K+]` [K^+PFHxS, PFHxS potassium salt], the Liver weight entry in data set [1] is listed as “increase”.

As for `O=C(O)C(F)(F)C(F)(F)C(F)(F)F` [PFBA, heptafluorobutyric acid], in data set [2], the Cholesterol result is recorded as “increased” and the Glucose levels result is listed as “increased”.

Regarding `O=C(O)C(F)(F)C(F)(F)C(F)(F)C(F)(F)C(F)(F)C(F)(F)F` [PFHpA, perfluoroheptanoic acid], in data set [3], the Average serum concentration is 137 µg/mL and the Average urine concentration is 1200 µg/mL. In data set [2], the Cholesterol result is “no effect” and the Glucose levels result is “increased”.

Turning to `O=C(O)C(F)(F)C(F)(F)C(F)(F)C(F)(F)C(F)(F)F` [PFHxA, perfluorohexanoic acid], in data set [3], the Average serum concentration was 4.8 µg/mL and the Average urine concentration was 1700 µg/mL. Further, in data set [2], the Cholesterol result was “no effect” and the Glucose levels result is given as “increased”.

Regarding `O=C(O)C(F)(F)C(F)(F)C(F)(F)C(F)(F)C(F)(F)C(F)(F)C(F)(F)F` [PFOA, perfluorooctanoic acid], the “Serum PFOA level” value in data set [4] (0.5% PFOA) is 152 ± 14 µg/mL; in data set [4] (2% PFOA), 226 ± 14 µg/mL. Further, the Total absorbable fraction in data set [5] is 69%; in data set [7], 50%. In data set [6], the Half-life in humans is given as 2.1–10.1 years. Further, the “SRBC IgM antibody titers” value in data set [8] (15 days, 3.75–30 mg/kg via drinking water, ref Dewitt et al., 2008) is “reduce”. Besides, the “IgM response to SRBC” value in data set [8] (dermal exposure, ref Shane et al., 2020) is “suppression”.

For `O=C(O)C(F)(F)C(F)(F)C(F)(F)C(F)(F)F` [PFPeA, perfluoropentanoic acid], in data set [2], the Cholesterol result is “no effect” and the Glucose levels entry is given as “increased”.
